From US8637467B2, “Pharmaceutical being used for treating cancer and fibrosis disease and the composition and uses thereof” (Wuxi MTLH Biotechnology Co., Ltd., priority 2008, dated 2014)

How the values were obtained:
[1] = system: Rat CC14 liver damage model; assay: Rat CC14 liver damage model (chronic liver fibrosis); type: in vivo, SD rat; design: Liver parameters: unit not given here; conditions: Gan-li-xin 25 mg/kg iv, once a day for 2 weeks from week 5
Description: To evaluate the protective effect of peptide SEQ ID NO:1 on liver damage, we used chronic liver fibrosis model (rat CC14 model) for efficacy evaluation.
Rat CC14 liver damage model
(1) Control group: saline, sc, 2 ml/kg, 10 rats
(2) model group: 40% CC14, sc, 2 ml/kg, 17 rats
(3) Gan-li-xin group: 25 mg/kg, iv, 10 ml/kg, 15 rats
(4) Prevention, high dose group: 50 μg peptide SEQ ID NO:1/kg, iv, 10 ml/kg, 17 rats
(5) Prevention, low dose group: 10 μg peptide SEQ ID NO:1/kg, iv, 10 ml/kg, 17 rats
(6) Treatment, high dose group: 100 μg peptide SEQ ID NO:1/kg, iv, 10 ml/kg, 17 rats
(7) Treatment, high dose group: 20 μg peptide SEQ ID NO:1/kg, iv, 10 ml/kg, 17 rats
Except for control group, inject 40% CC14 subcutaneously twice (Tuesday, and Friday) every week in Group (2) to (6), drug volume (0.2 ml/100 g, the first time 0.5 ml/100 g). CC14 Model construction is 6 weeks. Parallel to the model construction, inject intravenously peptide SEQ ID NO:1 at 50 μg/kg and 10 μg/kg in group (4) and (5), respectively, once a day for 6 weeks. For Group (3), (6), and (7), starting from week 5, inject Gan-li-xin 25 mg/kg, peptide SEQ ID NO:1 at 100 μg/kg and 20 μg/kg, respectively, once a day, continuously for 2 weeks.
All rats were weighed once a week during model construction and drug injection. According to weight, the dose of drugs is adjusted. 24 hours after the last time of CC14 injection, liver weight parameters were examined.
Blood was extracted from femoral artery and serum was separated. The following parameters were examined: serum alanine aminotransferase (ALT), aspartate aminotransferase (AST), Bilirubin (TB), Alkaline phosphatase (ALP), total protein (TP), albumin (ALB), globulin (G), albumin/globulin ratio (A/G), glucose (GLU), total cholesterol (TCH), triglyceride (TG).
Liver homogenate: to examine cholesterol (TCH), triglyceride (TG), alanine aminotransferase (ALT), and aspartate aminotransferase (AST).
[…], dry at 110 C, examine Hydroxyproline (HPA).
Part of the liver is fixed in formalin for histology examination.

[2] = system: human stomach cancer SGC-7901; assay: Human stomach cancer SGC-7901 xenograph nude mice; type: in vivo; conditions: positive control, 25 mg/kg, once a week, 3 weeks
Description: (§1) Experimental animals: Female BALB/cA nude mice, age 35-40 days, weight 18-22 g, provided by Shanghai Silaike Experimental Animal Co. Ltd., certificate number: SOCK (Shanghai) 2007-0005.
(§2) The tumor of xenograph nude mice grew to 100˜300 mm^3. Tumor mice were divided into different groups for drug testing. In the experiment below, there were 12 nude mice in negative control group, and 6 nude mice in the group with tested drug. Tumor diameter was measured three times each week, and mice weight was measured at the same time.
(§3) T/C (relative tumor inhibition rate) % was calculated as below: • (1) tumor volume, TV, calculated as below: TV=½×a×b^2 • A and b are length and width. • (2) relative tumor volume, RTV, calculated as below: RTV=TVt/TV0. • TV0 ? is tumor volume at the beginning of drug use (d0), TVt is tumor volume at later time point. • (3) relative tumor inhibition rate T/C (%), calculate as below:
(§4) [formula] TRTV: treatment group RTV; CRTV: negative control RTV
Peptide SEQ ID No:1 was given through tail vain (IV), at dosing of 1 mg/kg, 0.5 mg/kg, 0.25 mg/kg, 0.125 mg/kg, and 0.0625 mg/kg, 6 times a week. 5-FU was positive control, at dosing of 25 mg/kg, once a week. Negative control was given saline solution. The xenograph nude mice were treated for 3 weeks.

liver cancer (H22) = assay: Xenograph liver cancer nude mice model (H22); type: in vivo; conditions: H22, positive control, 10 mg/kg
Description: as §1, §2, §3, §4

human lung cancer A549 = assay: Human lung cancer A549 xenograph nude mice; type: in vivo; conditions: positive control, 20 mg/kg, once a week, 3 weeks
Description: as §1, §2, §3, §4
Peptide SEQ ID No:1 was given through tail vein (IV), at dosing of 0.5 mg/kg, 0.25 mg/kg, and 0.125 mg/kg, 6 times a week. Docetaxol was positive control, at dosing of 20 mg/kg, once a week. Negative control was given saline solution. The xenograph nude mice were treated for 3 weeks.

[3] = system: human breast cancer MDA-MB-435; assay: Human breast cancer MDA-MB-435 xenograph nude mice; type: in vivo; conditions: positive control, 20 mg/kg, once a week, 4 weeks
Description: as §1, §2, §3, §4
Peptide SEQ ID No:1 was given through tail vein (IV), at dosing of 2 mg/kg, 1 mg/kg, 0.5 mg/kg, 6 times a week. Docetaxol was positive control, at dosing of 20 mg/kg, once a week. Negative control was given saline solution. The xenograph nude mice were treated for 4 weeks.

## CC1(C)[C@@H](O[C@H]2O[C@H](C(=O)O)[C@@H](O)[C@H](O)[C@H]2O[C@@H]2O[C@H](C(=O)O)[C@@H](O)[C@H](O)[C@H]2O)CC[C@]2(C)[C@H]3C(=O)C=C4[C@@H]5C[C@@](C)(C(=O)O)CC[C@]5(C)CC[C@@]4(C)[C@]3(C)CC[C@@H]12.N.N [Gan-li-xin, Diammonium glycyrrhizinate, reference compound]
[1]
  ALB (albumin), serum: 17.9 ± 2.5 g/L
  ALP (alkaline phosphatase), serum: 351.6 ± 134.1 IU/L
  ALT (alanine aminotransferase), serum: 73.6 ± 25 IU/L
  AST (aspartate aminotransferase), serum: 253.3 ± 69.3 IU/L
  Bilirubin, serum: 3.3 ± 0.6 µmol/L
  GLU (glucose), serum: 5.4 ± 0.7 mmol/L
  Liver parameters: 4.4 ± 0.6
  Liver weight: 11.6 ± 3.5 g
  TCH (total cholesterol), serum: 1.7 ± 0.5 mmol/L
  TG (triglyceride), serum: 0.7 ± 0.3 mmol/L
  TP (total protein), serum: 64.8 ± 5.4 g/L
  hydroxyproline amount in rat liver: 0.191 ± 0.038 ug/mg wet weight

## O=c1[nH]cc(F)c(=O)[nH]1 [Peptide 5-FU, reference compound]
[2]
  T/C(%) relative tumor inhibition rate: 68.71%

## CC(=O)O[C@H]1C(=O)[C@@]2(C)[C@H]([C@H](OC(=O)c3ccccc3)[C@]3(O)C[C@H](OC(=O)[C@H](O)[C@@H](NC(=O)c4ccccc4)c4ccccc4)C(C)=C1C3(C)C)[C@]1(OC(C)=O)CO[C@@H]1C[C@@H]2O [Taxol, reference compound]
Liver cancer (H22)
  inhibition rate, tumor: ~67.8%

## CC(=O)O[C@@]12CO[C@@H]1C[C@H](O)[C@@]1(C)C(=O)[C@H](O)C3=C(C)[C@@H](OC(=O)[C@H](O)[C@@H](NC(=O)OC(C)(C)C)c4ccccc4)C[C@@](O)([C@@H](OC(=O)c4ccccc4)[C@H]21)C3(C)C [docetaxel, reference compound]
Human lung cancer A549
  T/C(%) relative tumor inhibition rate: 18.60%
[3]
  T/C(%) relative tumor inhibition rate: 16.51%
